Source: patent publication US8609727B2, “Dicarboxylic acid derivatives and their use” (Bayer Intellectual Property GmbH, priority 2005, dated 2013)

biological target: T1, Haem-containing sGC (recombinant soluble guanylate cyclase) (Rattus norvegicus, UniProt P20595); assay: Stimulation of recombinant soluble guanylate cyclase (sGC) in vitro, haem-containing enzyme; assay type: biochemical; settings: 0.1 μM DEA/NO, 0.0 μM Example 5
T1 construct: made in house; host or cells: Sf9 insect cells (baculovirus)
T1 sequence (P20595 1-619): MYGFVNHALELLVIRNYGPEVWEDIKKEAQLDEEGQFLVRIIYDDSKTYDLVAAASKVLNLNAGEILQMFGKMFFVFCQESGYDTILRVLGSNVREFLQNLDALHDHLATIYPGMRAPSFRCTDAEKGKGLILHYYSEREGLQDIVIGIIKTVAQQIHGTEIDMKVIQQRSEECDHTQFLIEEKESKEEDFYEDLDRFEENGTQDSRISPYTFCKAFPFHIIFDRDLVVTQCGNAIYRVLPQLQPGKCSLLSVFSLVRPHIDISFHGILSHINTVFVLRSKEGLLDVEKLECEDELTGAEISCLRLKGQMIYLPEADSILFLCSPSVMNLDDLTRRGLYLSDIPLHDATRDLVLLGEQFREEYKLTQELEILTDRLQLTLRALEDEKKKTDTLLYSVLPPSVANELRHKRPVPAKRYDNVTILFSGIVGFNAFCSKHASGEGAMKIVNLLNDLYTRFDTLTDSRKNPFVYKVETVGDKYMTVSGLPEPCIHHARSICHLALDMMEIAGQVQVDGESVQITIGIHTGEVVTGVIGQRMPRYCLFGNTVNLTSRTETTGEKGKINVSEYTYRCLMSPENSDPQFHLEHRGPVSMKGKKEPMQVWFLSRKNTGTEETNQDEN
T1 sequence (P19686 1-690 partner): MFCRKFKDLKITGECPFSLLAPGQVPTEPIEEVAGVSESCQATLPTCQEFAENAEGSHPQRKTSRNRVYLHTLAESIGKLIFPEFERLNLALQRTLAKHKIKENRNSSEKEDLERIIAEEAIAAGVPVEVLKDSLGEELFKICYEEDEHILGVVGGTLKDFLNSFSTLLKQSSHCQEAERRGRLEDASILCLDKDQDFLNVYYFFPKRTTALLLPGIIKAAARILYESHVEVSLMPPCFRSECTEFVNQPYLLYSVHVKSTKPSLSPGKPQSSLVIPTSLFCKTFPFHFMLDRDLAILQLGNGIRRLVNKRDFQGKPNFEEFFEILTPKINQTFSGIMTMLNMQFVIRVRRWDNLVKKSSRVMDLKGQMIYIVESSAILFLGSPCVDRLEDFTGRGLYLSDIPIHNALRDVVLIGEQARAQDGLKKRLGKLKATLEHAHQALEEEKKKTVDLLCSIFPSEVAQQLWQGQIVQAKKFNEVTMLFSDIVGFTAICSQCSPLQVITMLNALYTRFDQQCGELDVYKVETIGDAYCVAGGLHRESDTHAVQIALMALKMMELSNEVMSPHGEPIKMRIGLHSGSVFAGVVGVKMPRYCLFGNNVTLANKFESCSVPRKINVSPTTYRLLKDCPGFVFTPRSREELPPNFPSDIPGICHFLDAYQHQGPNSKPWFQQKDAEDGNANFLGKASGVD
Excerpt: (§1) B-2. Stimulation of Recombinant Soluble Guanylate Cyclase (sGC) In Vitro:
Hoenicka, E. M. Becker, H. Apeler, T. Sirichoke, H. Schroeder, R. Gerzer and J.-P. Stasch, “Purified soluble guanylyl cyclase expressed in a baculovirus/Sf9 system: Stimulation by YC-1, nitric oxide, and carbon oxide”, J. Mol. Med. 77 (1999), 14-23. The haem-free guanylate cyclase is obtained by adding Tween 20 to the sample buffer (0.5% in the final concentration).
(§2) The activation of sGC by a test substance is reported as n-fold stimulation of the basal activity.

Compound	Stimulation (n-fold) Haem-containing sGC by DEA/NO alone [n-fold]
CCN(CC)[N+]([O-])=NO [DEA/NO, 2-(N,N-diethylamino)diazenolate 2-oxide, reference compound]	78.7

same assay, conditions: 10 μM ODQ, 0.0 μM Example 5

Compound	Stimulation (n-fold) Haem-containing sGC with ODQ alone [n-fold]
O=c1onc2cnc3ccccc3n12 [ODQ, 1H-1,2,4-oxadiazole-(4,3a)-quinoxalin-1-one, reference compound]	38.8

system: saphenous artery rings; assay: Vasorelaxant effect in vitro (phenylephrine-contracted artery rings); assay type: cell-based, Rabbits; settings: Oryctolagus cuniculus, rabbit saphenous artery rings, contraction induced by phenylephrine
Procedure: B-1. Vasorelaxant Effect In Vitro:
Rabbits are anaesthetized and sacrificed by intravenous injection of thiopental sodium (about 50 mg/kg) and exsanguinated. The saphenous artery is removed and divided into rings 3 mm wide. The rings are mounted singly on in each case a pair of triangular hooks open at the end and made of 0.3 mm-thick special wire (Remanium®). Each ring is placed under an initial tension in 5 ml organ baths with Krebs-Henseleit solution which is at 37° C., is gassed with 95% O2/5% CO2 and has the following composition: NaCl 119 mM; KCl 4.8 mM; CaCl2×2H2O 1 mM; MgSO4×7H2O 1.4 mM; KH2PO4 1.2 mM; NaHCO3 25 mM; glucose 10 mM; bovine serum albumin 0.001%. The force of contraction is detected with Statham UC2 cells, amplified and digitized via A/D converters (DAS-1802 HC, Keithley Instruments, Munich) and recorded in parallel on chart recorders. Contractions are induced by addition of phenylephrine.
After several (generally 4) control cycles, the substance to be investigated is added in each further run in increasing dosage, and the height of the contraction achieved under the influence of the test substance is compared with the height of the contraction reached in the last preceding run. The concentration necessary to reduce the contraction reached in the preceding control by 50% is calculated from this (IC50). The standard application volume is 5 μl. The proportion of DMSO in the bath solution corresponds to 0.1%.

Compound	IC50 [µM]
O=C(O)c1ccc(CCC(/C=C/c2ccccc2OCc2ccc(CCc3ccccc3)cc2)Cc2ccc(C(=O)O)cc2)cc1 (racemic) [Example 7, 4-[(4E)-3-(4-Carboxybenzyl)-5-(2-{[4-(2-phenylethyl)benzyl]oxy}phenyl)pent-4-en-1-yl]benzoic acid]	0.021
O=C(O)c1ccc(CCC(/C=C/c2ccccc2OCCCC(F)(F)F)Cc2ccc(C(=O)O)cc2)cc1 (racemic) [Example 11, 4-{(4E)-3-(4-Carboxybenzyl)-5-[2-(4,4,4-trifluorobutoxy)phenyl]pent-4-en-1-yl}benzoic Acid]	0.129
COc1ccccc1/C=C/C(CCc1ccc(C(=O)O)cc1)Cc1ccc(C(=O)O)cc1 (racemic) [Example 13, 4-[(4E)-3-(4-Carboxybenzyl)-5-(2-methoxyphenyl)pent-4-en-1-yl]benzoic Acid]	0.0522
CCCCCOc1ccccc1/C=C/C(CCc1ccc(C(=O)O)cc1)Cc1ccc(C(=O)O)cc1 (racemic) [Example 17, 4-{(4E)-3-(4-Carboxybenzyl)-5-[2-(pentyloxy)phenyl]pent-4-en-1-yl}benzoic Acid]	0.0011
O=C(O)c1ccc(CCC(/C=C/c2ccccc2OCCCCC(F)(F)F)Cc2ccc(C(=O)O)cc2)cc1 (racemic) [Example 42, 4-[(4E)-3-(4-Carboxybenzyl)-5-{2-[(5,5,5-trifluoropentyl)oxy]phenyl}pent-4-en-1-yl]benzoic Acid]	0.019
O=C(O)c1ccc(CCC(/C=C/c2cc(F)ccc2OCc2ccc(C(F)(F)F)cc2)Cc2ccc(C(=O)O)cc2)cc1 (single isomer, unassigned) [Example 54, 4-[(4E)-3-(4-Carboxybenzyl)-5-(5-fluoro-2-{[4-(trifluoromethyl)benzyl]oxy}phenyl)pent-4-en-1-yl]benzoic Acid]	0.09
O=C(O)c1ccc(CCC(C=Cc2ccccc2OCc2ccc(-c3ccc(C(F)(F)F)cc3)cc2)Cc2ccc(C(=O)O)cc2)cc1 (stereo not shown) [Example 10, 4-[(4E/Z)-3-(4-Carboxybenzyl)-5-(2-{[4′-(trifluoromethyl)biphenyl-4-yl]methoxy}phenyl)pent-4-en-1-yl]benzoic Acid]	0.048
O=C(O)c1ccc(CCC(/C=C/c2ccccc2OCc2ccc(C(F)(C(F)(F)F)C(F)(F)F)cc2)Cc2ccc(C(=O)O)cc2)cc1 (stereo not shown) [Example 44, 4-{(4E)-3-(4-Carboxybenzyl)-5-[2-({4-[1,2,2,2-tetrafluoro-1-(trifluoromethyl)ethyl]benzyl}oxy)-phenyl]pent-4-en-1-yl}benzoic Acid]	0.022
O=C(O)c1ccc(CCC(/C=C/c2ccccc2OCc2ccc(OC(F)(F)F)cc2)Cc2ccc(C(=O)O)cc2)cc1 (stereo not shown) [Example 45]	0.006
O=C(O)c1ccc(CCC(/C=C/c2ccccc2OCc2cc(C(F)(F)F)cc(C(F)(F)F)c2)Cc2ccc(C(=O)O)cc2)cc1 (stereo not shown) [Example 48]	0.004
O=C(O)c1ccc(CCC(/C=C/c2ccccc2OC(F)(F)c2ccc(C(F)(F)F)cc2)Cc2ccc(C(=O)O)cc2)cc1 (stereo not shown) [Example 50]	0.37
O=C(O)c1ccc(CCC(/C=C/c2cc(F)ccc2OCc2ccc(C(F)(F)F)cc2)Cc2ccc(C(=O)O)cc2)cc1 (stereo not shown) [Example 55]	0.287
O=C(O)c1ccc(CCC(/C=C/c2cc(F)ccc2OCc2ccc(OC(F)(F)F)cc2)Cc2ccc(C(=O)O)cc2)cc1 (stereo not shown) [Example 56]	0.077

same assay, conditions: rabbit saphenous artery rings, contraction induced by phenylephrine

Compound	IC50 [µM]
CC(C)(C)c1ccc(COc2ccccc2/C=C/C(CCc2ccc(C(=O)O)cc2)Cc2ccc(C(=O)O)cc2)cc1 (racemic) [Example 2, 4-[(4E)-5-{2-[(4-tert-Butylbenzyl)oxy]phenyl}-3-(4-carboxybenzyl)pent-4-en-1-yl]benzoic Acid]	0.00054
CC(C)(C)c1ccc(COc2ccccc2/C=C/C(CCc2ccc(C(=O)O)cc2)Cc2ccc(C(=O)O)cc2)cc1 (racemic) [Example 3, 4-[(4E)-5-{2-[(4-tert-Butylbenzyl)oxy]phenyl}-3-(4-carboxybenzyl)pent-4-en-1-yl]benzoic Acid]	0.0047
O=C(O)c1ccc(CCC(/C=C/c2ccccc2OCCCCCc2ccccc2)Cc2ccc(C(=O)O)cc2)cc1 (racemic) [Example 6, 4-((4E)-3-(4-Carboxybenzyl)-5-{2-[(5-phenylpentyl)oxy]phenyl}pent-4-en-1-yl)benzoic Acid]	0.121

biological target: T2, Haem-free sGC (recombinant soluble guanylate cyclase) (Rattus norvegicus, UniProt P20595); assay: Stimulation of recombinant soluble guanylate cyclase (sGC) in vitro, haem-free enzyme; assay type: biochemical; settings: 10 μM ODQ, 0.0 μM Example 5
T2 construct: made in house; host or cells: Sf9 insect cells (baculovirus)
T2 sequence (P20595 1-619): T1 sequence (P20595 1-619)
T2 sequence (P19686 1-690 partner): T1 sequence (P19686 1-690 partner)
Procedure: as §1
Investigations on the stimulation of recombinant soluble guanylate cyclase (sGC) by the compounds according to the invention with and without sodium nitroprusside, and with and without the haem-dependent sGC inhibitor 1H-1,2,4-oxadiazole-(4,3a)-quinoxalin-1-one (ODQ) are carried out by the method described in detail in the following reference: M. Hoenicka, E. M. Becker, H. Apeler, T. Sirichoke, H. Schroeder, R. Gerzer and J.-P. Stasch, “Purified soluble guanylyl cyclase expressed in a baculovirus/Sf9 system: Stimulation by YC-1, nitric oxide, and […]”, J. Mol. Med. 77 (1999), 14-23. The haem-free guanylate cyclase is obtained by adding Tween 20 to the sample buffer (0.5% in the final concentration).
as §2

Compound	Stimulation (n-fold) Haem-free sGC with ODQ alone [n-fold]
O=c1onc2cnc3ccccc3n12 [ODQ, 1H-1,2,4-oxadiazole-(4,3a)-quinoxalin-1-one, reference compound]	2.0
